Values of other authors in patent publication US20150031774A1, “RASAGILINE ORALLY DISINTEGRATING COMPOSITIONS” (priority 2004, published 2015).

Biological target: 9-form of the enzyme monoamine oxidase (Homo sapiens, UniProt P27338)
Details: prior-art patents cited in background

9-form of the enzyme monoamine oxidase, sequence (P27338 whole entry): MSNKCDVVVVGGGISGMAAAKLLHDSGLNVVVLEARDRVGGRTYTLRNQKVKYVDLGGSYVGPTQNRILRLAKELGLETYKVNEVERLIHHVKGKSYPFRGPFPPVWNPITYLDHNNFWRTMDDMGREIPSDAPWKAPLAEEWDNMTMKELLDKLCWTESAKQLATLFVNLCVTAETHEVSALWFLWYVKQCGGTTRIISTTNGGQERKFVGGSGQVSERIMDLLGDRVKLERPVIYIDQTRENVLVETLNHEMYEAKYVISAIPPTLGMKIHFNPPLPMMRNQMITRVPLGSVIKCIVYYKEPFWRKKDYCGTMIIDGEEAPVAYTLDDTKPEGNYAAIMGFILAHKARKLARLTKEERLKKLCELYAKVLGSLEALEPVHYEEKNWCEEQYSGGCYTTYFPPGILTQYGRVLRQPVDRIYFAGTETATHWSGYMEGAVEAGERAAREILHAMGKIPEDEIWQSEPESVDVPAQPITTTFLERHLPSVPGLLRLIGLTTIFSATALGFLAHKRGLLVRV

SMILES: C#CCN[C@@H]1CCc2ccccc21 [Rasagiline, R(+)-propargyl-1-aminoindan]
- selectivity of monoamine oxidase inhibition: selective inhibitor
